Literature values as cited in patent US11246867B2, “Pharmaceutical composition comprising pimobendan” (Ceva Sante Animale, priority 2015, dated 2022).

Conditions: pH 5

solubility in water: about 1 mg/liter
SMILES: COc1ccc(-c2nc3ccc(C4=NNC(=O)CC4C)cc3[nH]2)cc1 (stereo not shown) [pimobendan, 4,5-dihydro-6-[2-(4-methoxyphenyl)-1H-benzimidazol-5-yl]-5-methyl-3(2H)-pyridazone]
